# From patent US20070161611A1, “POLYCYCLIC PHENOLIC COMPOUNDS AND USE IN TREATING VIRAL INFECTIONS” (priority 2005, published 2007)
# Like-named read-outs stand apart in the source and are kept apart here.
# What was measured:
# in vitro [1] = details: human
# HIV-1RF = assay: Anti-HIV-1 activity in CEM-SS cells (inhibition of HIV-1 induced cytotoxicity); details: Human immunodeficiency virus 1, CEM-SS; for EC50: read-out: CEM-SS/HIV-1RF EC50
# in vitro [2] = assay type: cell-based; details: bovine
# Procedure: Cell proliferation was monitored using a non-radioactive MTS/PMS assay (MTS: 3-(4,5-dimethylthiazol-2-yl)-5-(3-carboxymethoxy phenyl)-2-(4-sulfophenyl)-2H-tetrazolium (Promega, Madison, Wis.)); (PMS: phenazine methosulfate (Sigma Aldrich, St. Louis, Mo.)). MDBK cells were seeded into 96-well plates at a density of approximately 2×10^4 cells per well. The cultures were incubated 3-24 hours to permit attachment of the cells to the plates prior to infection and addition of compounds. […] A 96-well microtiter spectrophotometer plate reader was used to measure the absorbance at 490 nm after incubation of the 96-well plate for 1 to 4 hours at 37° C. in a humidified, 5% CO2 atmosphere. The mean absorbance in each set of triplicate wells was determined. Antiviral activity was measured as MTS conversion relative to the differential between the conversion for cell (non-infected) and viral (non-drug-treated) controls. The cytopathic effect (CPE) reduction for each concentration of the tested compound, which correlated with antiviral activity, was calculated as follows. % CPE reduction=[(D−ND)/(NI−ND)]×100, where D (drug-treated)=the absorbance of drug-treated cells; ND (non drug-treated)=the absorbance of untreated infected cells; and NI (non-infected)=the absorbance of non-infected cells. […]
# [3] = Toxicity in AVA5 replicon cells (neutral red dye uptake); details: human, AVA5 cells (HCV RNA-replicating, Huh7-derived)
# Procedure: The antiviral activity of test compounds were assayed in the stably HCV RNA-replicating cell line, AVA5, derived by transfection of the human hepatoblastoma cell line, Huh7 (Blight, et al., 2000, Science 290: 1972). […] Intracellular HCV RNA levels and cytotoxicity were assessed 24 hours after the last dose of compound.
# Assays were conducted using 4-5 doses of test compound. […] HCV RNA levels were assessed 24 hours after the last dose of compound using a dot blot hybridization assay. Both HCV and β-actin RNA levels in triplicate treated cultures were expressed as a percentage of the mean levels of RNA detected in untreated cultures (6 total). β-Actin RNA levels were used both as a measure of toxicity, and to normalize the amount of cellular RNA in each sample. Toxicity analyses were performed on separate plates from those used for the antiviral assays. Cells for the toxicity analyses were cultured and treated with test compounds with the same schedule and under identical culture conditions as used for the antiviral evaluations. Uptake of neutral red dye was used to determine the relative level of toxicity 24 hours following the last treatment. The absorbance of internalized dye at 510 nm (A510) was used for the quantitative analysis. Values in test cultures were compared to 9 cultures of untreated cells maintained on the same plate as the test cultures.
# [4] = system: HCV sub-genomic replicon genotype 1b; assay: HCV sub-genomic replicon assay in AVA5 cells (HCV RNA dot blot hybridization); assay type: cell-based, Hepatitis C Virus; details: for SI (Selectivity Index): HCV replicon genotype 1b; for EC50: Hepatitis C virus, AVA5 cells, once daily for three days, HCV RNA 24 h after last dose
# BVDV-NADL = assay: Protection of MDBK cells from BVDV-induced cytopathicity (MTS/PMS CPE reduction assay); assay type: cell-based; details: Bovine viral diarrhea virus isolates and strains
# Procedure: Cell proliferation was monitored using a non-radioactive MTS/PMS assay (MTS: 3-(4,5-dimethylthiazol-2-yl)-5-(3-carboxymethoxy phenyl)-2-(4-sulfophenyl)-2H-tetrazolium (Promega, Madison, Wis.)); (PMS: phenazine methosulfate (Sigma Aldrich, St. Louis, Mo.)). MDBK cells were seeded into 96-well plates at a density of approximately 2×10^4 cells per well. The cultures were incubated 3-24 hours to permit attachment of the cells to the plates prior to infection and addition of compounds. The appropriate PFU of BVDV-NADL were added to each well to achieve the desired MOI (<1 or >0.001); the cells were exposed to the virus diluted at the appropriate concentration in phosphate buffered saline (PBS) containing 1% horse serum (HS) for 1 to 2 hours. The virus was then removed and the cells were washed with PBS containing 1% HS. The test compounds were serially diluted in cell growth media with 2% HS and added to the cells. The plates were incubated at 37° C. in the presence of 5% CO2 for 3-4 days. Uninfected cells and infected, untreated cells (without compound) were used as additional controls. The final volume was 100 μl per well. After the 3-4 days of incubation a volume of 20 μL of the combined MTS/PMS solution was added into each well of the 96-well assay plate containing 100 μL of cells in culture medium to obtain final concentrations of 333 μg/ml MTS 5 and 25 μM PMS. A 96-well microtiter spectrophotometer plate reader was used to measure the absorbance at 490 nm after incubation of the 96-well plate for 1 to 4 hours at 37° C. in a humidified, 5% CO2 atmosphere. The mean absorbance in each set of triplicate wells was determined. Antiviral activity was measured as MTS conversion relative to the differential between the conversion for cell (non-infected) and viral (non-drug-treated) controls. The cytopathic effect (CPE) reduction for each concentration of the tested compound, which correlated with antiviral activity, was calculated as follows. % CPE reduction=[(D−ND)/(NI−ND)]×100, where D (drug-treated)=the absorbance of drug-treated cells; ND (non drug-treated)=the absorbance of untreated infected cells; and NI (non-infected)=the absorbance of non-infected cells. EC50 represents the concentration of drug that protects 50% of the cells from BVDV induced cytotoxicity (50% CPE reduction). CC50 equals the concentration that affects the viability of 50% of the MDBK cells.
# The compounds were combined at fixed molar ratios and serially diluted 2-fold in cell growth medium to examine a range of 6 fixed ratio combinations including those having about an equipotent antiviral dose to a combination in which one test compound was used at a sub-optimal level (e.g., sub-therapeutic).
# MDBK cells = assay: Cytotoxicity in uninfected MDBK cells after 24 h treatment (OD490); assay type: cell-based, bovine; details: untreated control OD490 1.2
# Procedure: (§1) Madin-Darby Bovine Kidney Cells (MDBK) (American Type Culture Collection (ATCC) No. CCL-22, Manassas, Va) were seeded into 96-well plates at a density of approximately 2×10^4 cells per well. The cell cultures were incubated for 3-24 hours to allow for attachment of cells to the culture plates prior to infection and addition of compounds. BVDV strain NADL (ATCC No. VR-534) plaque forming units (PFU) were added to each well to achieve a multiplicity of infection (MOI) ranging from about 1 or about 0.001, and allowed to remain in contact with the cultured cells for 1 to 2 hours. The virus was then removed and the cells were washed with growth medium (e.g., Dulbecco's Modified Eagles Medium (DMEM)) containing 5% horse serum (HS), or with phosphate buffered saline (PBS), 1% HS, and 1 mM MgCl2. The test compounds, dissolved in cell growth media with 2% HS, were then added to the BVDV-infected cells or uninfected cells (cytotoxicity determination) at various concentrations. The plates were incubated at 37° C., 5% CO2 for 24 hours (i.e., about one cycle of BVDV replication). The plates were then centrifuged at low speed and the supernatant was serially diluted for use in infecting a new monolayer of cells in 12-well plates. […] The virus plaques formed in MDBK cell cultures were quantified by a manual count and a titer was determined.
# [5] = as above; assay type: cell-based, bovine; details: bovine, compared to control, read-out: % Cytotoxicity of Compound 20 (1 μM)
# Procedure: as §1
# BVDV strain NADL = assay: Inhibition of viral release in BVDV-infected MDBK cells (plaque titration of supernatant); assay type: cell-based, Bovine Viral Diarrhea virus; details: 24 h treatment
# Procedure: as §1
# [6] = system: non-cytopathic BVDV Pe515; assay: Non-cytopathic BVDV genomic RNA reduction in MDBK cells (qRT-PCR); assay type: cell-based; details: Bovine viral diarrhea virus isolates and strains, 72 h, MOI 0.001, three day treatment, FIG. 1, read-out: EC50 of ncp BVDV genomic replication
# Procedure: MDBK cells were seeded into 6-or 96-well plates at a density of approximately 2×10^4 cells per well. The cultures were incubated 3-24 hours to permit attachment of the cells to the plates prior to infection and addition of compounds. The appropriate number of non-cytopathic BVDV Pe515 (ncp BVDV) PFU were added to each well to achieve the desired MOI (0.001); the cells were contacted with the virus diluted at the appropriate concentration in PBS containing 1% HS and 1 mM MgCl2 for 1 to 2 hours. The test compounds dissolved in cell growth media with 2% HS were added to the cells at varying concentrations. The plates were incubated at 37° C. in the presence of 5% CO2 for 3-4 days. […] Real-time quantitation was done using the Quantitative One Step Reverse Transcriptase (RT) Polymerase Chain Reaction (qRT-PCR) MasterMix Plus for SYBR® Green I (Eurogentec, San Diego, calif.). […] The following primers were used for the one step RT-PCR SYBR quantitation assay: forward primer 5′-[…]-3′ (SEQ ID NO:1) and reverse primer 5′-[…]-3′ (SEQ ID NO:2). […] Well-to-well variations in background fluorescence were corrected for by use of a ROX-labeled passive reference, included as part of the Eurogentec One Step qRT-PCR Master Mix for each sample. Amplification curves were analyzed by using empirically established cycle threshold and baseline settings for the assay. […]
# CEM-SS cells = assay: Cytotoxicity in CEM-SS cells; details: at 300 μM
# [7] = MOI = 0.05, 3-4 days, read-out: EC50
# [8] = MOI of 0.01, monotherapy run in parallel to combination studies, read-out: EC50 (monotherapy)
Structure (SMILES),CC50 (in vitro [1]),EC50 (HIV-1RF),CC50 at 3 days [3],SI (Selectivity Index) [4],EC50 [4],EC50 (BVDV-NADL; [8]),further results
CO/N=C1\CC[C@H]2[C@@H]3CCc4cc(O)c(C56CC7CC(CC(C7)C5)C6)cc4[C@H]3CC[C@]12C [Compound 5],17.3 µM,5.8 µM,–,–,–,–,–
C[C@]12CC[C@@H]3c4cc(C56CC7CC(CC(C7)C5)C6)c(O)cc4CC[C@H]3[C@@H]1CC/C2=N\N [Compound 4],–,–,24 µM,353,0.068 µM,–,CC50 (in vitro [2]): 34.5 ± 23.2 µM; EC50 (BVDV-NADL; [7]): 3.99 ± 0.99 µM
"C[C@]12CC[C@@H]3c4cc(C56CC7CC(CC(C7)C5)C6)c(O)cc4CC[C@H]3[C@@H]1CC[C@@H]2O [Compound 20, 17(β)-2-(1-adamantyl)-estra-1,3,5(10)-triene-3,17-diol]",14.3 µM,8.6 µM,8.1 µM,188,0.043 µM,–,"OD490 - 1 μM Compound 20 (MDBK cells): 1.2; cytotoxicity at 24 h, 1 µM [5]: 0%; Viral titer in presence of 1 μM of Compound 20 (BVDV strain NADL; untreated control 7.0 × 10^5 PFU/mL): 2.2 × 10^5 PFU/mL; inhibition at 1 µM (BVDV strain NADL; Bovine viral diarrhea virus isolates and strains, MDBK, compared to control, read-out: % Inhibition of Viral Release by Compound 20 at 1 μM): 69%; EC50 [6]: ~0.15 µM; CC50 (in vitro [2]): 40.1 ± 25.1 µM; EC50 (BVDV-NADL; MOI 0.01, read-out: EC50): 0.34 ± 0.02 µM; EC50 (BVDV-NADL; MOI 0.02, read-out: EC50): 0.51 µM; EC50 (BVDV-NADL; MOI 0.03, read-out: EC50): 0.46 µM; EC50 (BVDV-NADL; [7]): 0.8 ± 0.22 µM"
"C[C@]12CC[C@@H]3c4ccc(OS(=O)(=O)O)cc4CC[C@H]3[C@@H]1CC[C@H]2O [Compound 16, 17(α)-estradiol-3-sulfate sodium]",–,> 300 µM,> 100 µM,>196,0.51 µM,–,CC50 (in vitro [1]; CEM-SS cells): > 300 µM; inhibition at 300 µM (HIV-1RF; read-out: inhibition of HIV-1 induced cytotoxicity in CEM-SS cells): 20%; cytotoxicity shown by the compound (CEM-SS cells): no cytotoxicity
"C[C@@]1(O)[C@H](O)[C@@H](CO)O[C@H]1n1ccc(N)nc1=O [NM107, 2′-C-methyl cytidine, reference compound]",–,–,–,–,–,0.99 µM,–
"CCCC(=O)O[C@H]1CN2CC[C@H](O)[C@@H]2[C@@H](O)[C@@H]1O [Celgosivir, [1S-(1α,6β,7α,8β,8αβ)]-octahydro-1,6,7,8-indolizinetetrol 6-butanoate, reference compound]",–,–,–,–,–,2.2 µM,–
C[C@]12CCC3c4cc(C56CC7CC(CC(C7)C5)C6)c(O)cc4CCC3C1CCC2=O (stereo partly shown) [Compound 2],> 100 µM,19.7 µM,–,–,–,0.23 µM,–
